From the supplement of paper PMC10883282
± gives the standard deviation of the averaged measurements.

How the values were obtained:
Assay in all cases: relative viability vs DMSO control (72 h) (fraction); higher = more viable cells
A204 = test system: A204
Outline: (§1)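 Sarcoma cell lines were seeded in 384-well plates at densities set to reach 80–90% confluence. After 24 h, 2.5 µl of serially diluted compound was added (source plates 10 mM to 0.0002 mM), and plates were held 72 h at 37 °C, 5% CO2, with 0.1% DMSO vehicle and a 5 µM positive control. Relative viability came from ATPLite readings as percent growth, averaged over up to triplicate wells. Data were rescaled so full viability equals 1 and none equals 0.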

G401 = test system: G401
Outline: as §1

HS729 = test system: HS729
Outline: as §1

KHOS-240S = test system: KHOS-240S
Outline: as §1

MES-SA = test system: MES-SA
Outline: as §1

SK-ES-1 = test system: SK-ES-1
Outline: as §1

SK-LMS-1 = test system: SK-LMS-1
Outline: as §1

SW1353 = test system: SW1353
Outline: as §1

SW684 = test system: SW684
Outline: as §1

SW872 = test system: SW872
Outline: as §1

SW982 = test system: SW982
Outline: as §1

SYO-1 = test system: SYO-1
Outline: as §1

CCN1CCN(c2ccc(Nc3cc(N(C)C(=O)Nc4c(Cl)c(OC)cc(OC)c4Cl)ncn3)cc2)CC1 [Infigratinib]
Conditions | relative viability
A204, 85 pM | 1.08 ± 0.035
A204, 0.000254 µM | 1.08 ± 0.024
A204, 0.00076 µM | 1.08 ± 0.049
A204, 0.00229 µM | 1.05 ± 0.045
A204, 0.00686 µM | 0.964 ± 0.035
A204, 0.02058 µM | 0.825 ± 0.017
A204, 0.0617 µM | 0.676 ± 0.029
A204, 0.1852 µM | 0.569 ± 0.038
A204, 0.5556 µM | 0.559 ± 0.02
A204, 1.6667 µM | 0.527 ± 0.011
A204, 5 µM | 0.408 ± 0.0067
G401, 85 pM | 1.048 ± 0.0058
G401, 0.000254 µM | 1.039 ± 0.0064
G401, 0.00076 µM | 1.02 ± 0.031
G401, 0.00229 µM | 0.9703 ± 0.0075
G401, 0.00686 µM | 0.952 ± 0.012
G401, 0.02058 µM | 0.8266 ± 0.0059
G401, 0.0617 µM | 0.749 ± 0.051
G401, 0.1852 µM | 0.649 ± 0.025
G401, 0.5556 µM | 0.59 ± 0.025
G401, 1.6667 µM | 0.515 ± 0.034
G401, 5 µM | 0.33 ± 0.034
HS729, 85 pM | 1.01 ± 0.062
HS729, 0.000254 µM | 0.934 ± 0.042
HS729, 0.00076 µM | 0.942 ± 0.035
HS729, 0.00229 µM | 0.913 ± 0.075
HS729, 0.00686 µM | 0.866 ± 0.075
HS729, 0.02058 µM | 0.788 ± 0.012
HS729, 0.0617 µM | 0.69 ± 0.039
HS729, 0.1852 µM | 0.635 ± 0.011
HS729, 0.5556 µM | 0.604 ± 0.019
HS729, 1.6667 µM | 0.526 ± 0.0065
HS729, 5 µM | 0.525 ± 0.018
KHOS-240S, 85 pM | 1.058 ± 0.0077
KHOS-240S, 0.000254 µM | 1.11 ± 0.034
KHOS-240S, 0.00076 µM | 1.08 ± 0.031
KHOS-240S, 0.00229 µM | 1.06 ± 0.027
KHOS-240S, 0.00686 µM | 1.06 ± 0.025
KHOS-240S, 0.02058 µM | 0.986 ± 0.017
KHOS-240S, 0.0617 µM | 0.926 ± 0.036
KHOS-240S, 0.1852 µM | 0.932 ± 0.068
KHOS-240S, 0.5556 µM | 0.907 ± 0.043
KHOS-240S, 1.6667 µM | 0.874 ± 0.066
KHOS-240S, 5 µM | 0.835 ± 0.015
MES-SA, 85 pM | 0.933 ± 0.027
MES-SA, 0.000254 µM | 0.94 ± 0.022
MES-SA, 0.00076 µM | 0.927 ± 0.024
MES-SA, 0.00229 µM | 0.928 ± 0.0093
MES-SA, 0.00686 µM | 0.929 ± 0.029
MES-SA, 0.02058 µM | 0.869 ± 0.025
MES-SA, 0.0617 µM | 0.846 ± 0.025
MES-SA, 0.1852 µM | 0.733 ± 0.033
MES-SA, 0.5556 µM | 0.696 ± 0.025
MES-SA, 1.6667 µM | 0.556 ± 0.0096
MES-SA, 5 µM | 0.412 ± 0.012
SK-ES-1, 85 pM | 1.03 ± 0.039
SK-ES-1, 0.000254 µM | 1.07 ± 0.04
SK-ES-1, 0.00076 µM | 1 ± 0.03
SK-ES-1, 0.00229 µM | 1.06 ± 0.019
SK-ES-1, 0.00686 µM | 1.03 ± 0.04
SK-ES-1, 0.02058 µM | 1.01 ± 0.027
SK-ES-1, 0.0617 µM | 0.971 ± 0.036
SK-ES-1, 0.1852 µM | 0.929 ± 0.06
SK-ES-1, 0.5556 µM | 0.797 ± 0.0085
SK-ES-1, 1.6667 µM | 0.559 ± 0.0091
SK-ES-1, 5 µM | 0.373 ± 0.0076
SK-LMS-1, 85 pM | 1.12 ± 0.035
SK-LMS-1, 0.000254 µM | 1.11 ± 0.06
SK-LMS-1, 0.00076 µM | 1.08 ± 0.064
SK-LMS-1, 0.00229 µM | 1.13 ± 0.065
SK-LMS-1, 0.00686 µM | 1.1 ± 0.063
SK-LMS-1, 0.02058 µM | 1.06 ± 0.074
SK-LMS-1, 0.0617 µM | 1.08 ± 0.056
SK-LMS-1, 0.1852 µM | 1.11 ± 0.11
SK-LMS-1, 0.5556 µM | 1.08 ± 0.089
SK-LMS-1, 1.6667 µM | 1.04 ± 0.061
SK-LMS-1, 5 µM | 0.952 ± 0.033
SW684, 85 pM | 1.18 ± 0.069
SW684, 0.000254 µM | 1.19 ± 0.066
SW684, 0.00076 µM | 1.19 ± 0.029
SW684, 0.00229 µM | 1.14 ± 0.062
SW684, 0.00686 µM | 1.18 ± 0.043
SW684, 0.02058 µM | 1.18 ± 0.075
SW684, 0.0617 µM | 1.16 ± 0.014
SW684, 0.1852 µM | 1.17 ± 0.055
SW684, 0.5556 µM | 1.15 ± 0.097
SW684, 1.6667 µM | 1.22 ± 0.073
SW684, 5 µM | 1.14 ± 0.019
SW872, 85 pM | 1.09 ± 0.046
SW872, 0.000254 µM | 1.097 ± 0.01
SW872, 0.00076 µM | 1.09 ± 0.028
SW872, 0.00229 µM | 1.06 ± 0.042
SW872, 0.00686 µM | 1.03 ± 0.07
SW872, 0.02058 µM | 1.03 ± 0.019
SW872, 0.0617 µM | 1.06 ± 0.052
SW872, 0.1852 µM | 1.04 ± 0.058
SW872, 0.5556 µM | 1.01 ± 0.043
SW872, 1.6667 µM | 0.882 ± 0.084
SW872, 5 µM | 0.839 ± 0.023
SW982, 85 pM | 1.01 ± 0.057
SW982, 0.000254 µM | 1.07 ± 0.032
SW982, 0.00076 µM | 1.02 ± 0.024
SW982, 0.00229 µM | 1.05 ± 0.021
SW982, 0.00686 µM | 1.05 ± 0.048
SW982, 0.02058 µM | 1.05 ± 0.026
SW982, 0.0617 µM | 1.07 ± 0.042
SW982, 0.1852 µM | 1.061 ± 0.008
SW982, 0.5556 µM | 0.98 ± 0.027
SW982, 1.6667 µM | 0.78 ± 0.041
SW982, 5 µM | 0.732 ± 0.0075
SW1353, 85 pM | 1.06 ± 0.023
SW1353, 0.000254 µM | 1.069 ± 0.0048
SW1353, 0.00076 µM | 1.04 ± 0.024
SW1353, 0.00229 µM | 1.01 ± 0.023
SW1353, 0.00686 µM | 0.98 ± 0.017
SW1353, 0.02058 µM | 0.914 ± 0.029
SW1353, 0.0617 µM | 0.861 ± 0.018
SW1353, 0.1852 µM | 0.861 ± 0.013
SW1353, 0.5556 µM | 0.861 ± 0.053
SW1353, 1.6667 µM | 0.8437 ± 0.0034
SW1353, 5 µM | 0.741 ± 0.04
SYO-1, 85 pM | 1.02 ± 0.047
SYO-1, 0.000254 µM | 0.973 ± 0.037
SYO-1, 0.00076 µM | 0.975 ± 0.027
SYO-1, 0.00229 µM | 0.901 ± 0.083
SYO-1, 0.00686 µM | 0.827 ± 0.054
SYO-1, 0.02058 µM | 0.655 ± 0.078
SYO-1, 0.0617 µM | 0.626 ± 0.064
SYO-1, 0.1852 µM | 0.63 ± 0.062
SYO-1, 0.5556 µM | 0.596 ± 0.044
SYO-1, 1.6667 µM | 0.623 ± 0.075
SYO-1, 5 µM | 0.606 ± 0.063
